# “Also recorded” adds a separate entry of the source.
# Key:
# mouse islets = test: Glucose stimulation insulin secretion assay; type: cell-based; conditions: 25 uM 24 h pretreatment
# Experimental: FIG. 12A show mouse islets were pre-incubated with SPB08007 (25 uM) or DMSO (0.1%) for 24 h. Islets were adapted to KRB media containing glucose 2 mM for 1 h, followed by media exchange containing glucose 2 mM (basal) or 12 mM (stimulated). After 1 h, Insulin released in the media was measured by ELISA. […] N=3. *p<0.05 vs. DMSO basal. ***p<0.001 vs. DMSO.
# Islet isolation. Islets were isolated from DBA/2 mice. Briefly, pancreata of anesthetized mice were infused with collagenase (1 mg/ml, type XI, Sigma-Aldrich, Rehovot, Israel), excised, and incubated for 30 min at 37° C. The digested tissue was vortexed, filtered and washed in HBSS (Biological Industries) containing 0.5% BSA (Sigma). The pellet was resuspended in RPMI medium 1640 supplemented with 10% FCS, 50 units/ml penicillin, and 50 μg/ml streptomycin (all from Biological Industries). Islets were collected on a 100-μm cell strainer (BD, Falcon) and hand-picked using stereoscope (Zeiss, Oberkochen, Germany)
# Glucose stimulation insulin secretion assay. After 24-hour pretreatment with SPB08007, 25 uM, islets were washed twice with PBS (Biological Industries, Bet-Haemek, Israel). For basal insulin secretion, the islets were incubated with Krebs-Ringer Bicarbonate (KRB) buffer supplemented with 0.5% BSA and 2 mM glucose for 30 min at 37 deg. C and 5% CO2. For stimulated insulin secretion, the buffer was replaced with KRB buffer supplemented with 0.5% BSA and 16 mM glucose and the islets were incubated for additional 60 min. Supernatant insulin content was measured by ELISA (Merck Millipore, Burlington, Mass.).
# Mitochondrial complex I = test: Complex I activity assay; type: biochemical; conditions: mitochondria from INS1 cells treated with 25 uM
# Experimental: Complex I Activity assay. Mitochondrial complex I enzyme activity was measured using Abcam's complex I enzyme activity microplate assay Kit (ab109721) by following the oxidation of reduced nicotinamide adenine dinucleotide (NADH) to oxidized NAD+ and the simultaneous reduction of a dye which leads to increased absorbance at OD=450 nm.
# INS1 cells [1] = test: Mitochondrial morphology (aspect ratio, circularity); type: cell-based; conditions: 25 uM, 24 h
# Experimental: INS1 cells were treated with SPB08007 (25 uM) or DMSO (0.1%) for 24 h. Mitochondria were stained with Mitotracker Green and TMRE (images represented in FIG. 10). MTG fluorescence was used to calculate Aspect Ratio (AR) (FIG. 16A) and circularity (FIG. 16B) of mitochondrial structures.
# INS1 cells [2] = tested on: INS1 cells
# Experimental: Cellular oxygen consumption. An hour before oxygen consumption measurements, cell media was replaced by assay media (2 mM glucose, 0.8 mM Mg 2+, 1.8 mM Ca 2+, 143 mM NaCl, 5.4 mM KCl, 0.91 mM, NaH 2 PO 4 , and 15 mg/mL Phenol red) for 120 min at 37° C. (no CO2) before loading into the Seahorse Bioscience XF24 extracellular analyzer. The ports of the cartridge containing the oxygen probes were loaded with the compounds to be injected during the assay (50 μL/port) and the cartridge was calibrated.
# Basal respiration was recorded for 30 min, at approximately 5 min intervals until system stabilization. Glucose was injected at a final concentration of 12 mM and glucose stimulated respiration was recorded for approximately 15 min. FCCP (Carbonyl cyanide-4-phenylhydrazone) was used at final concentration of 4 μM and injected with sodium pyruvate (Sigma) at a final concentration of 5 mM. Oligomycin and antimycin were used at final concentrations of 2 and 4 μM, respectively. All respiratory modulators were used at ideal concentrations titrated during preliminary experiments (not shown) and oxygen consumption rates were recorded for up to 15 min due the toxicity of these compounds. […] All the OCR values were subtracted from the lowest antimycin OCR.
# INS1 cells [3] = test: Mitochondrial membrane potential (TMRE/MTG); type: cell-based; conditions: 25 uM, 24 h
# Experimental: INS1 cells were treated for 24 h with SPB08007 (25 uM) or DMSO (0.1%). Mitochondrial membrane potential was analyzed cell by cell through TMRE staining corrected by Mitotracker Green (MTG). Cells were imaged using a 100× Plan Neofluar objective and the Airyscan module of a Zeiss LSM880 confocal microscope. […] Each experiment was repeated 2 times, 59-85 cells of each group were analyzed in each experiment for TMRE/MTG, and 48 fields were analyzed in each experiment for Mitosox analysis. *p<0.05 vs. DMSO; ***p<0.05 vs. DMSO and SPB08007.
# To assess mitochondrial membrane potential, INS1 cells were plated in each compartment of a quadrant imaging dish (Greiner Bio-One International) at a density of 1.2*10^5 cells/well. After 48 h, cells were incubated RPMI-1640 containing 25 μM of compound A or vehicle (0.1% DMSO). After 18h, the cells were stained in RPMI-1640 media containing 200 nM MitoTracker Green (MTG) and 15 nM of Tetramethylrhodamine, ethyl ester (TMRE); cells were then washed three times and finally kept in RPMI-1640 containing TMRE but lacking MTG. Live-Imaging was performed using a 63× Plan Neofluar objective and the Airyscan module of a Zeiss LSM880 confocal microscope. The mitochondrial membrane potential was analyzed by TMRE fluorescence corrected by MTG, using the Fiji/ImageJ software.
smiles,measurement,setting,value
CC(=O)N/C(=C\c1sc2ccccc2c1C)C(=O)O [SPB08007],insulin secretion fold (glucose stimulated/basal),mouse islets,higher secretion fold
same,basal insulin secretion,mouse islets; 2 mM glucose,significantly reduced
same,glucose-stimulated insulin secretion,mouse islets; 16 mM of glucose,maintaining the levels
same,mitochondrial Complex I activity,Mitochondrial complex I,two-and-a-half-fold increase
same,mitochondrial morphology,INS1 cells [1],does not alter
same,OCR under oligomycin,"INS1 cells [2]; 25 μM, 18 hours exposure",decreased as well
same,basal oxygen consumption rate (OCR),"INS1 cells [2]; 25 μM, 18 hours exposure",decreased
same,maximal OCR (under FCCP induction),"INS1 cells [2]; 25 μM, 18 hours exposure",decreased
same,ATP-linked oxygen consumption,"INS1 cells [2]; 25 uM, 48 h",higher
same,glucose-stimulated mtOCR,"INS1 cells [2]; 25 uM, 48 h",increased
same,mitochondrial coupling (oligomycin-sensitive respiration),"INS1 cells [2]; 25 uM, 48 h",conserving
same,spare respiratory capacity relative to basal respiration,"INS1 cells [2]; 25 uM, 48 h",unchanged
same,basal mitochondrial oxygen consumption rate (mtOCR),"INS1 cells [2]; 25 uM, 48 h, 2 mM glucose",increased
same,maximum mtOCR,"INS1 cells [2]; 25 uM, 48 h, after FCCP",increased
same,mitochondrial membrane potential ψm (TMRE/MTG),INS1 cells [3],"not reduced; also recorded: slightly, but significantly, raised"

# — US20230002344A1, “NOVEL BENZOTHIOPHENE DERIVATIVES AND USE THEREOF FOR STIMULATING MITOCHONDRIAL TURNOVER” (NIBN, The National Institute For Biotechnology In The Negev …, priority 2019, published 2023)
